# In patent publication US9340596B2, “Fusion protein comprising tumor necrosis factor related apoptosis inducing ligand and integrin ligand and use thereof” (NANJING UNIVERSITY, priority 2007, dated 2016):
# How the values were obtained:
# [1] = system: COLO-205 colon cancer cells; assay: Anti-tumor efficacy on COLO-205 colon cancer model; format: in vivo, nude mice
# Procedure: (§1) 5-6 week-old female nude mice were purchased from Shanghai Experimental Animal Center. The nude mice were injected through their tail veins with 100 μg of a specific antibody, i.e., purified Asialo GM-1 antibody (Wako Chemicals Inc., Japan) that blocks natural killer cells. After 24 hours, the upper right sides of the back of the nude mice were inoculated subcutaneously with 100,000 COLO-205 or HT-29 colon cancer cells. When the tumors reached 70 mm3, random grouping and treatment began. The recombinant TRAIL and its variant proteins were administered intraperitoneally, once daily for 10-14 days. The water-soluble camptothecin CPT-11 (11-hydroxy-camptothecin; Product Name: Irinotecan Hydrochloride Injection; Pharmacia/Upjohn Company's product) was administered intravenously once a week, two times in total. The recombinant proteins and camptothecin were diluted with a phosphate buffer. The tumor size was measured with a caliper, and the calculation formula was: […].
# Two kinds of colon cancer models, COLO-205 and HT-29, were used to test the anti-tumor activity of the TRAIL variant in the athymic nude mice. Because COLO-205 colon cancer cells were sensitive to TRAIL, the therapeutic effect of separate use of TRAIL and TRAIL variant was assessed on this model. On the 8th day after the nude mice were inoculated with tumor cells, administration of drugs through the tail vein began for ten days in succession. The mice were divided into four groups; 100 μg TRAIL variant group, 20 μg TRAIL variant group, 100 μg wild-type TRAIL group, and PBS control group. […] Moreover, the TRAIL variant's inhibition of tumor growth was dose-dependent.
# The invention also provides the anti-tumor effect of combined use of TRAIL variant and chemotherapeutic drug CPT-11. Protein injection was carried out by intraperitoneal injection once a day for TRAIL or TRAIL variant, for two weeks total, and intravenous injection once every two days from CPT-11 via tail veins, seven times in total. […] This effect was even better than the higher dose of the TRAIL+CPT-11 combined treatment group ([…]) (89%, P=0.001, 36 days).
# [2] = system: Jurkat T lymphoma cells; assay: Cell apoptosis, Annexin V and PI double staining, Jurkat; format: cell-based
# Procedure: (§2) After the cells treated with TRAIL and its variant were digested with trypsin, they were removed from the cultivation plate, washed twice with phosphate buffer solution, and centrifuged for 5 min at 300 g centrifugal force. The supernatants were removed, and the cells were re-suspended in 100 ul of binding buffer solution. Then, Annexin V-FITC (BD Pharmgen) was added until a final concentration of 2 μg/ml was achieved, followed by incubation at room temperature. After 10 min, 400 ul of binding buffer was added, and the cells were transferred to a flow analysis tube. 1 μg of […] (Sigma Corporation) was added to each tube. The cells were analyzed with a flow cytometer within 30 min. At least three separate tests should be carried out for each cell line.
# [3] = system: FADD−/− deficient Jurkat cells; assay: Apoptosis induction in FADD-/- deficient Jurkat cells
# Text: (§4) The fluorescence detection method was used to test the activity of Caspase-8 and Caspase-3 in the Jurkat cells after treatment of TRAIL and TRAIL variants.
# [4] = system: primary liver cells; assay: Cell toxicity on primary liver cells; format: cell-based; conditions: 300 ng/ml, 24 hours
# Procedure: (§3) Different from the tumor cells, the normal human foreskin microvascular endothelial cells, 293T kidney cells and primary liver cells were treated with 300 ng/ml of the TRAIL variants or TRAIL for 24 hours.
# [5] = system: human foreskin microvascular endothelial cells; assay: Cell adhesion assay of human foreskin microvascular endothelial cells on protein-coated wells; format: cell-based
# Procedure: The TRAIL and its variant protein are coated on a 96-well PVC plate overnight at 4° C. The coated 96-well plate was rinsed with 0.9% physiological saline, and then blocked for 1 h at 1640 culture medium containing 2% bovine serum albumin, and then rinsed again. After the human foreskin microvascular endothelial cells were digested, washed three times with phosphate buffer and re-suspended into the complete RPMI1640 medium, it was then added to the 96-well plate coated with TRAIL and its variant (40,000 cell per well). After the cells were incubated for 1.5 hours in an incubator containing 5% carbon dioxide, they were washed three times with physiological saline to remove the non-adherent cells. The adherent cells were fixed for 30 min with phosphate buffer solution (pH 7.3) containing 4% formalin and 2% sucrose, and then stained with 0.5% crystal violet. The fixed stained cells were rinsed several times, then dissolved with […] DMSO to test the absorbance values at 540 nm. All the tests should be carried out at least three times independently.
# [6] = system: COLO-205 tumor tissues; assay: Drug distribution test of 125I-labeled recombinant proteins in tumor tissues; format: in vivo; conditions: COLO-205 tumor-bearing nude mice, 240 minutes after injection
# Procedure: Separate injection from tail veins of 100 μl containing […] of 125I-labeled human TRAIL or its variant protein into the COLO-205 tumor bearing nude mice. 5, 30, 60, 120 and 240 minutes after injection, the tumor tissues were peeled off separately and weighed, and the radiation amount of the tumor tissues were measured with a liquid scintillation counter. The amount of radiation in the tumor tissues is represented by the percentage of measuring radiation quantity per gram of tissues and the injected radiation quantity (% ID/g). The results are the average value of three independent tests.
# The recombinant TRAIL and the TRAIL variant protein were labeled with a radioisotope of iodine (^125I) using a labeling kit (Pierce Corp.). The labeling results were as follows: the specific activity of ^125I-TRAIL was 7.86 μCi/μg protein, and the specific activity of ^125I-TRAIL variant was 7.49 μCi/μg protein. After the nude mice were inoculated with COLO-205 colon cancer, and when the tumor size reached 400-500 mm3, they were randomly grouped into wild-type and variant group. Each group included five time points: 5 min, 30 min, 60 min, 120 min and 240 min, and each time point included three animals. […] At each time point, the mice were sacrificed, the tumors were dissected by surgery, and the radiation dose was measured through a liquid scintillation counter. […]
# [7] = system: human foreskin microvascular endothelial cells; assay: Binding assay of fluorescein-labeled TRAIL and its variant with endothelial cells (flow cytometer); conditions: fluorescein-labeled protein, flow cytometry
# Procedure: The TRAIL and its variant were labeled with fluorescein (Sigma company), and the labeled proteins were separated from free fluorescein through a Sephadex-G25 size exclusion column. After human foreskin microvascular endothelial cells were digested by trypsin, washed twice with ice-cold phosphate buffer containing 2% fetal calf serum, and then re-suspended, they were added with 1 μg of labeled protein for incubation for 1 h at 4° C. The fluorescent-labeled bovine serum albumin was used as a control of the test. After being washed three times, the binding capacity of the stained cells was analyzed with a flow cytometer (Becton Dickinson Company).
# [8] = system: Caspase-8−/− deficient Jurkat cells; assay: Apoptosis induction in Caspase-8-/- deficient Jurkat cells
# Text: as §4
# [9] = system: 293T kidney cells; assay: Cell toxicity on 293T kidney cells; format: cell-based; conditions: 300 ng/ml, 24 hours
# Procedure: as §3
# [10] = system: COLO-205 colon cancer cells; assay: Cell apoptosis, Annexin V and PI double staining, COLO-205; format: cell-based
# Procedure: as §2
# [11] = system: normal human foreskin microvascular endothelial cells; assay: Cell toxicity on normal endothelial cells; format: cell-based; conditions: 300 ng/ml, 24 hours
# Procedure: as §3
# [12] = system: HT-29 colon cancer cells; assay: Anti-tumor efficacy on HT-29 colon cancer model; format: in vivo, nude mice; conditions: TRAIL-insensitive HT-29 model
# Procedure: as §1
# The invention also provides the anti-tumor effect of combined use of TRAIL variant and chemotherapeutic drug CPT-11. Protein injection was carried out by intraperitoneal injection once a day for TRAIL or TRAIL variant, for two weeks total, and intravenous injection once every two days from CPT-11 via tail veins, seven times in total. […]
# [13] = system: MDA-MB-231 breast cancer cells; assay: Cell apoptosis, Annexin V and PI double staining, MDA-MB-231; format: cell-based
# Procedure: as §2
Compound,"tumor growth inhibition (in words) ([1]; COLO-205, individual injection of low dose CPT-11 (6.25 mg/kg/each), vs PBS control)",medial lethal dose [2],induction of cell apoptosis [3],cell toxicity [4],reduction by free protein of endothelial cells adhered to microplates coated with RGD-L-TRAIL (competitive test) ([5]; free protein added to plates coated with TRAIL variant protein),"adhesion of human foreskin microvascular endothelial cells to culture plate wells coated with the protein ([5]; protein coated on 96-well plate, cells incubated 1.5 hours)",distribution in the tumor tissues [6],binding capacity with human foreskin microvascular endothelial cells [7],"tumor inhibition rate ([1]; COLO-205, 90 μg/day/each combined with CPT-11 6.25 mg/kg/each, 36 days)","tumor inhibition rate ([1]; COLO-205, 100 μg, used alone, ten days in succession, 37th day, vs PBS control)","mice whose tumors disappeared, among ten animals ([1]; COLO-205, 270 μg/day/each + CPT-11 combined treatment)","tumor inhibition effect ([1]; COLO-205, 270 μg/day/each combined with CPT-11 6.25 mg/kg/each, 36 days)","dose required for the same therapeutic effect, relative to TRAIL variant ([1]; COLO-205 models, combined treatment program with CPT-11)",induction of cell apoptosis [8],cell toxicity [9],medial lethal dose ([10]; COLO-205),"apoptosis rate ([10]; COLO-205 cells, 2.43 ng/ml)",cell toxicity [11],"dose required, relative to TRAIL variant [12]",medial lethal dose [13]
"CCc1c2c(nc3ccc(OC(=O)N4CCC(N5CCCCC5)CC4)cc13)-c1cc3c(c(=O)n1C2)COC(=O)[C@]3(O)CC [CPT-11, reference compound]",slightly inhibit the tumor growth,,,,,,,,,,,,,,,,,,,
"TRAIL: recombinant wild-type human tumor necrosis factor-related apoptosis-inducing ligand, comparator",,6.7 ng/mL,no induced cell apoptosis,No obvious cell toxicity,has no such ability,do not adhere,difficult to detect,very weak,67.8%,37%,6 mice,89%,3-9 times,no induced cell apoptosis,No obvious cell toxicity,3.5 ng/mL,43.7%,No obvious cell toxicity,at least 2 times,2.3 ng/mL
